Reference: patent US20170240556A1, “BIFLUORODIOXALANE-AMINO-BENZIMIDAZOLE KINASE INHIBITORS FOR THE TREATMENT OF CANCER, AUTOIMMUNEINFLAMMATION AND CNS DISORDERS” (4SC DISCOVERY GMBH, priority 2012, published 2017)

What was measured:
[1] = target: Casein kinase 1 delta (CSKN1D) (Homo sapiens, UniProt P48730); test: Casein kinase assay, CK1 delta; type: biochemical; conditions: recombinant CSKN1D 5 nM, ATP 10 μM
Procedure: (§1) The recombinant protein Casein kinase 1 delta (CSKN1D) was added to the substrate solution in a concentration of 5 nM and gently mixed. Dilution series in of compounds of the present invention in DMSO were added to the reaction mixture, followed after 20 min by addition of a mixture of ATP and ^33P-ATP (specific activity 0.01 μCi/μl final) to a final concentration of 10 μM. Reactions were carried out at 25° C. for 120 min, followed by spotting the reactions onto P81 ion exchange filter paper. Unbound phosphate was removed by washing of the filters in 0.75% phosphoric acid. […] IC50 values and curve fits were obtained using the program Prism® (Graph Pad Software).

[2] = target: Casein kinase 1 epsilon (CSKN1E) (Homo sapiens, UniProt P49674); test: Casein kinase assay, CK1 epsilon; type: biochemical; conditions: recombinant CSKN1E 30 nM, ATP 10 μM
Procedure: as §1
The above assay was also used to determine the inhibitory capacity of the compounds of the present invention on Casein Kinase 1 epsilon, wherein instead of CSKN1D, recombinant protein Casein kinase 1 epsilon (CSKN1E) was added to the substrate solution in a concentration of 30 nM and gently mixed.

Sequence of Casein kinase 1 delta (CSKN1D) (P48730 whole entry): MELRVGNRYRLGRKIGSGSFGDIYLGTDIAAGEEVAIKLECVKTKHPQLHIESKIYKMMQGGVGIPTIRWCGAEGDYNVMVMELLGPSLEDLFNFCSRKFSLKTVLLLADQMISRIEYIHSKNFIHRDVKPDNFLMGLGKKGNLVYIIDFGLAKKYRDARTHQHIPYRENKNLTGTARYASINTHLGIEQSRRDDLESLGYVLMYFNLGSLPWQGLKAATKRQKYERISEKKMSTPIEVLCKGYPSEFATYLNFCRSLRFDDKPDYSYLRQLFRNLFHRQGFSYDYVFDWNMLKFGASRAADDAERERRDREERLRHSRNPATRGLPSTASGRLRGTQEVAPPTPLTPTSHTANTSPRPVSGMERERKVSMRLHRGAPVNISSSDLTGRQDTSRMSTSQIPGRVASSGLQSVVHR
Sequence of Casein kinase 1 epsilon (CSKN1E) (P49674 whole entry): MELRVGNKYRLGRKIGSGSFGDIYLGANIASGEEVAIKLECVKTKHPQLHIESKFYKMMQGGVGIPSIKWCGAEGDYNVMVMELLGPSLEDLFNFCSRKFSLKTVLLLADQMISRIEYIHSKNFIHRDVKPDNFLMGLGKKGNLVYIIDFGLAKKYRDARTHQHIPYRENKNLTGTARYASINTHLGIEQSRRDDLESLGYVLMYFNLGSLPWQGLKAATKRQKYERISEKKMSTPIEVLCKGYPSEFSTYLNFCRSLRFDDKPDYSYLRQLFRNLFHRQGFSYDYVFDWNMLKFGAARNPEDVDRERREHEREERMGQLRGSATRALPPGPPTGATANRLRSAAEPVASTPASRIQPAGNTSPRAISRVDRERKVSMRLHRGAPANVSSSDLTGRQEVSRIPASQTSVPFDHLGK

SMILES | IC50 [1] | IC50 [2]
O=C(Nc1nc2cc3c(cc2[nH]1)OC(F)(F)O3)c1cnc(NC(=O)c2ccccc2OC(F)(F)F)o1 [Compound 48, N-(2,2-difluoro-5H-[1,3]dioxolo[4′,5′:4,5]benzo[1,2-d]imidazol-6-yl)-2-(2-(trifluoromethoxy)benzamido)oxazole-5-carboxamide] | < 200 nM | 200 to 1000 nM
O=C(Nc1nc2cc3c(cc2[nH]1)OC(F)(F)O3)c1csc(-c2cccc(Cl)c2)n1 [Compound 17B, 2-(3-chlorophenyl)-N-(2,2-difluoro-5H-[1,3]dioxolo[4′,5′:4,5]benzo[1,2-d]imidazol-6-yl)thiazole-4-carboxamide] | < 200 nM | 200 to 1000 nM
COc1ccc(C(=O)Nc2nc(C(=O)Nc3nc4cc5c(cc4[nH]3)OC(F)(F)O5)ns2)cc1 [Compound 90, N-(2,2-difluoro-5H-[1,3]dioxolo[4′,5′:4,5]benzo[1,2-d]imidazol-6-yl)-5-(4-methoxybenzamido)-1,2,4-thiadiazole-3-carboxamide] | > 1000 nM | > 1000 nM
COc1ccc(C(=O)Nc2nc3cc4c(cc3[nH]2)OC(F)(F)O4)cc1 [Compound 46, N-(2,2-difluoro-5H-[1,3]dioxolo[4′,5′:4,5]benzo[1,2-d]imidazol-6-yl)-4-methoxybenzamide] | 200 to 1000 nM | 200 to 1000 nM
O=C(Nc1nc2cc3c(cc2[nH]1)OC(F)(F)O3)c1coc(NC(=O)c2ccco2)n1 [Compound 10, N-(2,2-difluoro-5H-[1,3]dioxolo[4′,5′:4,5]benzo[1,2-d]imidazol-6-yl)-2-(furan-2-carboxamido)oxazole-4-carboxamide] | 200 to 1000 nM | > 1000 nM
Cn1cccc1C(=O)Nc1nc2cc3c(cc2[nH]1)OC(F)(F)O3 [Compound 20B, N-(2,2-Difluoro-5H-[1,3]dioxolo[4′,5′:4,5]benzo[1,2-d]imidazol-6-yl)-1-methyl-1H-pyrrole-2-carboxamide] | 200 to 1000 nM | > 1000 nM
O=C(Nc1nc2cc3c(cc2[nH]1)OC(F)(F)O3)c1csc(-c2ccc(C(F)(F)F)cc2)n1 [Compound 5, N-(2,2-difluoro-5H-[1,3]dioxolo[4′,5′:4,5]benzo[1,2-d]imidazol-6-yl)-2-(4-(trifluoromethyl)phenyl)thiazole-4-carboxamide] | > 1000 nM | > 1000 nM
Nc1c[nH]c(C(=O)Nc2nc3cc4c(cc3[nH]2)OC(F)(F)O4)c1 [Compound 15B, 4-Amino-N-(2,2-difluoro-5H-[1,3]dioxolo[4′,5′:4,5]benzo[1,2-d]imidazol-6-yl)-1H-pyrrole-2-carboxamide] | < 200 nM | 200 to 1000 nM
O=C(Nc1nc2cc3c(cc2[nH]1)OC(F)(F)O3)c1ccoc1 [Compound 32, N-(2,2-difluoro-5H-[1,3]dioxolo[4′,5′:4,5]benzo[1,2-d]imidazol-6-yl)furan-3-carboxamide] | 200 to 1000 nM | < 200 nM
O=C(Nc1nc2cc3c(cc2[nH]1)OC(F)(F)O3)c1csc(Br)c1 [Compound 29, 5-bromo-N-(2,2-difluoro-5H-[1,3]dioxolo[4′,5′:4,5]benzo[1,2-d]imidazole-6-yl)-thiophene-3-carboxamide] | < 200 nM | < 200 nM
O=C(Nc1nc(C(=O)Nc2nc3cc4c(cc3[nH]2)OC(F)(F)O4)ns1)c1ccc(F)cc1 [Compound 92, N-(2,2-difluoro-5H-[1,3]dioxolo[4′,5′:4,5]benzo[1,2-d]imidazol-6-yl)-5-(4-fluorobenzamido)-1,2,4-thiadiazole-3-carboxamide] | < 200 nM | < 200 nM
NC(=O)c1ccc(C(=O)Nc2nc3cc4c(cc3[nH]2)OC(F)(F)O4)cc1 [Compound 111, N^1-(2,2-difluoro-5H-[1,3]dioxolo[4′,5′:4,5]benzo[1,2-d]imidazol-6-yl)terephthalamide] | < 200 nM | < 200 nM
Nc1cccc(C(=O)Nc2nc3cc4c(cc3[nH]2)OC(F)(F)O4)c1 [Compound 87, 3-amino-N-(2,2-difluoro-5H-[1,3]dioxolo[4′,5′:4,5]benzo[1,2-d]imidazol-6-yl)benzamide] | < 200 nM | 200 to 1000 nM
O=C(Nc1nc2cc3c(cc2[nH]1)OC(F)(F)O3)c1csc(-c2ccccc2)n1 [Compound 4, N-(2,2-difluoro-5H-[1,3]dioxolo[4′,5′:4,5]benzo[1,2-d]imidazol-6-yl)-2-phenylthiazole-4-carboxamide] | 200 to 1000 nM | 200 to 1000 nM
Cc1cc(-c2nc(C(=O)Nc3nc4cc5c(cc4[nH]3)OC(F)(F)O5)cs2)no1 [Compound 141, N-(2,2-difluoro-5H-[1,3]dioxolo[4′,5′:4,5]benzo[1,2-d]imidazol-6-yl)-2-(5-methylisoxazol-3-yl)thiazole-4-carboxamide] | < 200 nM | < 200 nM
O=C(Nc1nc2cc3c(cc2[nH]1)OC(F)(F)O3)c1csc(-c2ccc3c(c2)CCO3)c1 [Compound 38, N-(2,2-difluoro-5H-[1,3]dioxolo[4′,5′:4,5]benzo[1,2-d]imidazol-6-yl)-5-(2,3-dihydrobenzofuran-5-yl)thiophene-3-carboxamide] | < 200 nM | 200 to 1000 nM
COc1cc(Nc2ncc(C(=O)Nc3nc4cc5c(cc4[nH]3)OC(F)(F)O5)s2)nc(OC)n1 [Compound 99, N-(2,2-difluoro-5H-[1,3]dioxolo[4′,5′:4,5]benzo[1,2-d]imidazol-6-yl)-2-((2,6-dimethoxypyrimidin-4-yl)amino)thiazole-5-carboxamide] | > 1000 nM | > 1000 nM
O=C(Nc1nc2cc3c(cc2[nH]1)OC(F)(F)O3)c1ncn[nH]1 [Compound 84, N-(2,2-difluoro-5H-[1,3]dioxolo[4′,5′:4,5]benzo[1,2-d]imidazol-6-yl)-1H-1,2,4-triazole-3-carboxamide] | > 1000 nM | > 1000 nM
O=C(Nc1nc(C(=O)Nc2nc3cc4c(cc3[nH]2)OC(F)(F)O4)cs1)Nc1ccccc1OC(F)(F)F [Compound 26, N-(2,2-difluoro-5H-[1,3]dioxolo[4′,5′:4,5]benzo[1,2-d]imidazol-6-yl)-2-(3-(2-(trifluoromethoxy)phenyl)ureido)thiazole-4-carboxamide] | < 200 nM | < 200 nM
Cc1cc(C(F)(F)F)nc(Nc2nc(C(=O)Nc3nc4cc5c(cc4[nH]3)OC(F)(F)O5)cs2)n1 [Compound 25, N-(2,2-difluoro-5H-[1,3]dioxolo[4′,5′:4,5]benzo[1,2-d]imidazol-6-yl)-2-((4-methyl-6-(trifluoromethyl)pyrimidin-2-yl)amino)thiazole-4-carboxamide] | > 1000 nM | > 1000 nM
Cc1nn(C)cc1-c1cc(C(=O)Nc2nc3cc4c(cc3[nH]2)OC(F)(F)O4)no1 [Compound 144, N-(2,2-difluoro-5H-[1,3]dioxolo[4′,5′:4,5]benzo[1,2-d]imidazol-6-yl)-5-(1,3-dimethyl-1H-pyrazol-4-yl)isoxazole-3-carboxamide] | < 200 nM | > 1000 nM
O=C(Nc1nc2cc3c(cc2[nH]1)OC(F)(F)O3)c1cscn1 [Compound 44, N-(2,2-difluoro-5H-[1,3]dioxolo[4′,5′:4,5]benzo[1,2-d]imidazol-6-yl)thiazole-4-carboxamide] | 200 to 1000 nM | 200 to 1000 nM
O=C(Nc1nc(C(=O)Nc2nc3cc4c(cc3[nH]2)OC(F)(F)O4)ns1)c1ccc(Cl)cc1 [Compound 91] | < 200 nM | < 200 nM
CC(=O)Nc1n[nH]c(C(=O)Nc2nc3cc4c(cc3[nH]2)OC(F)(F)O4)n1 [Compound 95, 3-acetamido-N-(2,2-difluoro-5H-[1,3]dioxolo[4′,5′:4,5]benzo[1,2-d]imidazol-6-yl)-1H-1,2,4-triazole-5-carboxamide] | > 1000 nM | > 1000 nM
O=C(Nc1nc2cc3c(cc2[nH]1)OC(F)(F)O3)c1cocn1 [Compound 35, N-(2,2-difluoro-5H-[1,3]dioxolo[4′,5′:4,5]benzo[1,2-d]imidazol-6-yl)-oxazole-4-carboxamide] | 200 to 1000 nM | > 1000 nM
O=C(Nc1nc2cc3c(cc2[nH]1)OC(F)(F)O3)c1ccccc1 [Compound 49, N-(2,2-difluoro-5H-[1,3]dioxolo[4′,5′:4,5]benzo[1,2-d]imidazol-6-yl)benzamide] | < 200 nM | < 200 nM
O=C(Nc1nc2cc3c(cc2[nH]1)OC(F)(F)O3)c1csc(Nc2ccc(OC(F)(F)F)cc2)n1 [Compound 23, N-(2,2-difluoro-5H-[1,3]dioxolo[4′,5′:4,5]benzo[1,2-d]imidazol-6-yl)-2-((4-(trifluoromethoxy)phenyl)amino)thiazole-4-carboxamide] | > 1000 nM | > 1000 nM
O=C(Nc1nc2cc3c(cc2[nH]1)OC(F)(F)O3)c1ccc(Cl)cc1Cl [Compound 43, 2,4-dichloro-N-(2,2-difluoro-5H-[1,3]dioxolo[4′,5′:4,5]benzo[1,2-d]imidazol-6-yl)benzamide] | 200 to 1000 nM | 200 to 1000 nM
Cc1cc(C(=O)Nc2nc3cc4c(cc3[nH]2)OC(F)(F)O4)c(C)s1 [Compound 28, N-(2,2-difluoro-5H-[1,3]dioxolo[4′,5′:4,5]benzo[1,2-d]imidazole-6-yl)-2,5-dimethylthiophene-3-carboxamide] | 200 to 1000 nM | 200 to 1000 nM
Cc1cc(C(=O)Nc2nc3cc4c(cc3[nH]2)OC(F)(F)O4)c(C)o1 [Compound 34, N-(2,2-difluoro-5H-[1,3]dioxolo[4′,5′:4,5]benzo[1,2-d]imidazol-6-yl)-2,5-dimethylfuran-3-carboxamide] | > 1000 nM | > 1000 nM
